Counter-ions that a name gives are not always drawn.

Regarding `NCC1Cc2cccc(-c3ccc(F)cc3)c2O1` (single isomer, unassigned; (+)) (as salt: hydrobromid) [Example 74, (+)-1-[7-(4-fluorophenyl)-2,3-dihydro-1-benzofuran-2-yl]methanamine], the melting point lay in the range of 207 to 208 °C.
For `NCC1Cc2cccc(-c3ccc(Cl)cc3)c2O1` (single isomer, unassigned; (+)) (as salt: hydrobromid) [Example 77, (+)-1-[7-(4-chlorophenyl)-2,3-dihydro-1-benzofuran-2-yl]methanamine] the value was 229 to 231 °C; for `NCC1Cc2cc(Cl)cc(-c3ccccc3)c2O1` (single isomer, unassigned; (+)) (as salt: hydrobromid) [Example 85, (+)-1-(5-chloro-7-phenyl-2,3-dihydro-1-benzofuran-2-yl)methanamine], 201 to 203 °C; for `Cc1ccccc1-c1cc(Cl)cc2c1OC(CN)C2` (single isomer, unassigned; (+)) (as salt: hydrobromid) [Example 96, (+)-1-[5-chloro-7-(2-methylphenyl)-2,3-dihydro-1-benzofuran-2-yl]methanamine], 170 to 172 °C.
`NCC1Cc2cccc(Cc3ccccc3)c2O1` (single isomer, unassigned; (+)) (as salt: hydrochloride) [Example 16, (+)-1-(7-benzyl-2,3-dihydro-1-benzofuran-2-yl)methanamine] came in with a melting point of 128 to 131 °C.
The result for `CC(C)(C)c1cccc2c1OC(CN)C2` (single isomer, unassigned; (+)) (as salt: hydrochloride) [Example 26, (+)-1-(7-tert-butyl-2,3-dihydro-1-benzofuran-2-yl)methanamine] reads 177 to 179 °C; that for `Cc1cccc(-c2cccc3c2OC(CN)C3)c1` (single isomer, unassigned; (+)) (as salt: hydrochloride) [Example 42, (+)-1-[7-(3-methylphenyl)-2,3-dihydro-1-benzofuran-2-yl]methanamine], 196 to 198 °C; that for `Cc1ccccc1-c1cccc2c1OC(CN)C2` (single isomer, unassigned; (+)) (as salt: hydrochloride) [Example 48, (+)-1-[7-(2-methylphenyl)-2,3-dihydro-1-benzofuran-2-yl]methanamine], 211 to 212 °C.
The result for `NCC1Cc2cccc(-c3ccccc3F)c2O1` (single isomer, unassigned; (+)) (as salt: hydrochloride) [Example 51, (+)-1-[7-(2-fluorophenyl)-2,3-dihydro-1-benzofuran-2-yl]methanamine] reads 227 to 228 °C; that for `NCC1Cc2cccc(-c3ccccc3C(F)(F)F)c2O1` (single isomer, unassigned; (+)) (as salt: hydrochloride) [Example 55, (+)-1-{7-[2-(trifluoromethyl)phenyl]-2,3-dihydro-1-benzofuran-2-yl}methanamine], 97 to 100 °C; that for `CC(C)c1ccccc1-c1cccc2c1OC(CN)C2` (single isomer, unassigned; (+)) (as salt: hydrochloride) [Example 62, (+)-[7-(2-isopropylphenyl)-2,3-dihydro-1-benzofuran-2-yl]methylamine], 205 to 206 °C.
For `COc1ccc(-c2cccc3c2OC(CN)C3)cc1` (single isomer, unassigned; (+)) (as salt: hydrochloride) [Example 80, (+)-1-[7-(4-methoxyphenyl)-2,3-dihydro-1-benzofuran-2-yl]methanamine] the value was 183 to 186 °C.
`CNCC1Cc2cc(Cl)cc(-c3ccsc3)c2O1` (single isomer, unassigned; (+)) (as salt: hydrochloride) [Example 93, (+)-N-[(5-chloro-7-thien-3-yl-2,3-dihydro-1-benzofuran-2-yl)methyl]-N-methylamine] displayed a melting point of 263 to 266 °C.
The compound `Cc1ccccc1-c1cc(F)cc2c1OC(CN)C2` (single isomer, unassigned; (+)) (as salt: hydrochloride) [Example 105, (+)-1-[5-fluoro-7-(2-methylphenyl)-2,3-dihydro-1-benzofuran-2-yl]methanamine] showed a melting point of 227 to 230 °C.
In the case of `Cc1cccc(C)c1-c1cccc2c1CC(CN)O2` (single isomer, unassigned; (+)) (as salt: hydrochloride) [Example 126, (+)-1-[4-(2,6-dimethylphenyl)-2,3-dihydro-1-benzofuran-2-yl]methanamine], the melting point is over 250 °C.
On to `COc1ccccc1-c1cccc2c1OC(CN)C2` (single isomer, unassigned; (+)) (as salt: hydrochloride) [Example 128, (+)-1-[7-(2-methoxyphenyl)-2,3-dihydro-1-benzofuran-2-yl]methanamine], for which the melting point lay within 180 to 184 °C.
For `NCC1Cc2cccc(-c3cccc(F)c3)c2O1` (single isomer, unassigned; (+)) (as salt: hydrochloride) [Example 131, (+)-1-[7-(3-fluorophenyl)-2,3-dihydro-1-benzofuran-2-yl]methanamine], the melting point fell in the range of 186 to 188 °C.
In turn, `COc1cccc(-c2cccc3c2OC(CN)C3)c1` (single isomer, unassigned; (+)) (as salt: hydrochloride) [Example 133, (+)-1-[7-(3-methoxyphenyl)-2,3-dihydro-1-benzofuran-2-yl]methanamine] registered a melting point of 156 to 158 °C.
For `NCC1Cc2cccc(-c3ccc(C(F)(F)F)cc3)c2O1` (single isomer, unassigned; (+)) (as salt: hydrochloride) [Example 137, (+)-1-{7-[4-(trifluoromethyl)phenyl]-2,3-dihydro-1-benzofuran-2-yl}methanamine] the value was 226 to 229 °C.
Compound `NCC1Cc2cccc(-c3ccc(Cl)cc3Cl)c2O1` (single isomer, unassigned; (+)) (as salt: hydrochloride) [Example 150, (+)-1-[7-(2,4-dichlorophenyl)-2,3-dihydro-1-benzofuran-2-yl]methanamine] came in with a melting point of 201 to 204 °C.
The compound `NCC1Cc2cc(F)cc(-c3ccccc3C(F)(F)F)c2O1` (single isomer, unassigned; (+)) (as salt: hydrochloride) [Example 152, (+)-1-{5-fluoro-7-[2-(trifluoromethyl)phenyl]-2,3-dihydro-1-benzofuran-2-yl}methanamine] registered a melting point of 193 to 197 °C.
For `NCC1Cc2c(cccc2-c2ccccc2)O1` (single isomer, unassigned; (-)) (as salt: hydrobromid) [Example 3, (−)-1-(4-phenyl-2,3-dihydro-1-benzofuran-2-yl)methanamine] the value was 227 to 228 °C; for `Cc1ccccc1-c1cccc2c1CC(CN)O2` (single isomer, unassigned; (-)) (as salt: hydrobromid) [Example 6, (−)-1-[4-(2-methylphenyl)-2,3-dihydro-1-benzofuran-2-yl]methanamine], 231 to 233 °C.
The result for `NCC1Cc2cccc(C3CCCC3)c2O1` (single isomer, unassigned; (-)) (as salt: hydrobromid) [Example 9, (−)-(7-cyclopentyl-2,3-dihydro-1-benzofuran-2-yl)methylamine] reads 208 to 211 °C; that for `CC(C)(C)c1cc(Cl)cc2c1OC(CN)C2` (single isomer, unassigned; (-)) (as salt: hydrobromid) [Example 28, (−)-1-(7-tert-butyl-5-chloro-2,3-dihydro-1-benzofuran-2-yl)methanamine], 219 to 222 °C.
The result for `NCC1Cc2cccc(-c3ccsc3)c2O1` (single isomer, unassigned; (-)) (as salt: hydrobromid) [Example 46, (−)-1-(7-thien-3-yl-2,3-dihydro-1-benzofuran-2-yl)methanamine] reads 234 to 235 °C; that for `NCC1Cc2cccc(-c3cccc(Cl)c3)c2O1` (single isomer, unassigned; (-)) (as salt: hydrobromid) [Example 67, (−)-1-[7-(3-chlorophenyl)-2,3-dihydro-1-benzofuran-2-yl]methanamine], 189 to 190 °C.
Compound `NCC1Cc2cccc(-c3ccc(F)cc3)c2O1` (single isomer, unassigned; (-)) (as salt: hydrobromid) [Example 75, (−)-1-[7-(4-fluorophenyl)-2,3-dihydro-1-benzofuran-2-yl]methanamine] had a melting point of 208 to 210 °C.
The compound `NCC1Cc2cccc(-c3ccc(Cl)cc3)c2O1` (single isomer, unassigned; (-)) (as salt: hydrobromid) [Example 78, (−)-1-[7-(4-chlorophenyl)-2,3-dihydro-1-benzofuran-2-yl]methanamine] gave a melting point of 233 to 235 °C.
In the case of `COc1ccc(-c2cccc3c2OC(CN)C3)cc1` (single isomer, unassigned; (-)) (as salt: hydrobromid) [Example 81, (−)-1-[7-(4-methoxyphenyl)-2,3-dihydro-1-benzofuran-2-yl]methanamine], the melting point was in the range of 185 to 188 °C.
For `NCC1Cc2cc(Cl)cc(-c3ccsc3)c2O1` (single isomer, unassigned; (-)) (as salt: hydrobromid) [Example 91, (−)-(5-chloro-7-thien-3-yl-2,3-dihydro-1-benzofuran-2-yl)methylamine], the melting point was 277 to 280 °C.
With `CC(C)c1cccc2c1OC(CN)C2` (single isomer, unassigned; (-)) (as salt: hydrochloride) [Example 19, (−)-(7-isopropyl-2,3-dihydro-1-benzofuran-2-yl)methylamine], the melting point lay in the range of 176 to 178 °C.
The compound `CC(C)(C)c1cccc2c1OC(CN)C2` (single isomer, unassigned; (-)) (as salt: hydrochloride) [Example 25, (−)-1-(7-tert-butyl-2,3-dihydro-1-benzofuran-2-yl)methanamine] came in with a melting point of 178 to 180 °C.

These data come from patent US7435837B2, “Dihydrobenzofuranyl alkanamine derivatives and methods for using same” (Wyeth, priority 2003, dated 2008).
